In brackets after ≈: the same amount, converted by molar mass.
Columns and labels:
[1] = test system: resistant strain of P. aeruginosa (P. aeruginosa 6294 MLP-3); experiment: Rat neutropenic thigh model against resistant P. aeruginosa; type: in vivo
Description: The compound identified as SXP 2523 was further tested in vivo against a resistant strain of P. aeruginosa. Twenty male Sprague Dawley rats were rendered neutropenic by treatment with cyclophosphamide on day −4 and day −1 with 100 mg/kg and 75 mg/kg, respectively. Rats were infected with P. aeruginosa 6294 MLP-3, via injection into the right thigh muscle of 0.1 mL per rat. Two hours post infection rats were treated intravenously with either SXP-2523 or amikacin in a total dose of 10 or 60 mg/kg, respectively. The test article and control agent were delivered at 2, 4, and 6 hours post infection. Five rats were treated with each drug concentration. One group of five rats were euthanized at initiation of treatment and thigh CFUs were determined (T=Rx). Twenty-four hours post infection; rats were euthanized by CO2 inhalation. The right thigh muscles of the rats were aseptically removed, weighed, homogenized, serially diluted, and plated on BHI medium. The plates were incubated overnight at 37° C. in 5% CO2. CFU per gram of thigh was calculated by enumerating the plated colonies then adjusting for serial dilutions and the weight of the thigh.

[2] = test system: Klebsiella pneumoniae KR1 (clinical isolate with intermediate aminoglycoside resistance); experiment: MIC against Klebsiella pneumoniae clinical isolate KR1; type: cell-based; details: Klebsiella pneumonia KR1; in µg/mL
From the text: Klebsiella pneumoniae (Kpn) and Escherichia coli (Eco) are gram-negative (like Pae), enteric pathogens with increasing clinical relevance. Many clinical isolates of Kpn and Eco harbor extended-spectrum beta-lactamases and are no longer sensitive to most beta-lactam antibiotics. We acquired clinical isolates of Klebsiella pneumoniae and Escherichia coli (Micromyx LLC, Kalamazoo, Mich.) and used this panel to test compounds for anti-enteric activity.

[3] = test system: Acinetobacter baumannii (Aba, ABWT, ATCC #BAA-747); experiment: MIC against Acinetobacter baumannii reference strain ABWT; type: cell-based
[4] = test system: Pseudomonas aeruginosa PR2 (clinical isolate with intermediate aminoglycoside resistance); experiment: MIC against Pseudomonas aeruginosa clinical isolate PR2; type: cell-based; details: Pseudomonas aeruginosa resistant strain PR2
[5] = test system: Acinetobacter baumannii AB1; experiment: MIC against Acinetobacter baumannii clinical isolate AB1; type: cell-based
From the text: (§1) Acinetobacter baumannii is another clinically important and very challenging gram negative pathogen. Members of the Acinetobacter genus, including baumannii, have a remarkable ability to upregulate and acquire resistance determinants. Coupled with its ability to survive for prolonged periods in a hospital environment, A. baumannii is an emerging threat for healthcare institutions globally. We acquired clinical isolates of Acinetobacter baumannii and used this panel to test compounds for anti-Acinetobacter activity. We first tested reference AGs against our panel of Aba strains.

[6] = test system: Acinetobacter baumannii AB3; experiment: MIC against Acinetobacter baumannii clinical isolate AB3; type: cell-based
From the text: as §1

[7] = resistant P. aeruginosa, Log CFU/thigh, total dose 10 mg/kg SXP-2523 or 60 mg/kg amikacin iv

NCCCNCC1OC(OC2C(NC(=O)C(O)CCN)CC(N)C(OC3OC(CN)C(O)CC3N)C2F)C(O)C(N)C1O (stereo not drawn) [SXP 2523]
efficacy against amikacin-resistant P. aeruginosa in animal model ([1]; rat neutropenic thigh model, total dose 10 mg/kg iv): effective against amikacin-resistant P. aeruginosa | Change from 24 hr. control [1, 7]: −4.94 | Change from T = Rx controls [1, 7]: −1.78 | Log CFU/thigh ([1]; resistant P. aeruginosa, neutropenic male Sprague Dawley rats, iv at 2, 4, 6 h post infection, total dose 10 mg/kg SXP-2523 or 60 mg/kg amikacin, 24 h post infection): 1.71 Log CFU/thigh | MIC KR1 [2]: 0.5-1 | MIC ABWT [3]: 0.5 µg/mL (≈ 0.798 µM) | MIC PR2 [4]: 0.5 µg/mL (≈ 0.798 µM) | MIC AB1 [5]: 2 to 4 µg/mL | MIC AB3 [6]: 4 to 8 µg/mL
